Source: patent publication US20230201301A1 (priority 2020, published 2023)

Test system: inflammatory cell-types in the lungs
Parameters: species or system transgenic mice B6.Cg-Tg(K18-ACE2)2Prlmn/J
Details: mouse, in vivo, ip

LQEEDTGEYGCV (TLT-1 peptide) [LR12]
CD4+ T cells in lungs vs vehicle: no effect
CD8+ T cells in lungs vs vehicle: no effect
CD45+ cells in lungs vs vehicle: decrease
NK cells in lungs vs vehicle: no effect
NKT cells in lungs vs vehicle: lower number
number of monocytes-derived macrophages in lungs vs vehicle: lower
number of neutrophils in lungs vs vehicle: lower
total number of cells in lungs vs vehicle: did not differ
